In patent US20100137277A1, “PYRIDINE COMPOUNDS AND THEIR USE AS P2Y12 ANTAGONISTS” (ASTRAZENECA AB, priority 2007, published 2010):

target: T1, P2Y12 receptor (Homo sapiens, UniProt Q9H244); assay: Functional inhibition of 2-Me-S-ADP induced P2Y12 signalling (35S-GTPγS binding, membranes from P2Y12 transfected CHO-cells); assay type: biochemical; conditions: EC80 of agonist, value given at the end of each example
T1 construct: expressed in transfected cells; host or cells: CHO cells (membranes)
T1 sequence (Q9H244 whole entry): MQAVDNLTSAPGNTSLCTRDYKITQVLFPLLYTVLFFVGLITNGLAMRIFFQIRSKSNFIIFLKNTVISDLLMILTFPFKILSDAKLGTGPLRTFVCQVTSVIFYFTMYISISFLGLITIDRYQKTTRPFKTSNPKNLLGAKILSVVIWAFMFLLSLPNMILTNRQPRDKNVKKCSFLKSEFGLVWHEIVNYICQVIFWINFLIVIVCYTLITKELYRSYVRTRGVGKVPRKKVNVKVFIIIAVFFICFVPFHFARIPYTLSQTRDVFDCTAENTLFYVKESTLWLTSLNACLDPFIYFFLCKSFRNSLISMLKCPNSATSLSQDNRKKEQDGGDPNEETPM
Method: Functional inhibition of—the P2Y12 receptor can be measured by in vitro assays using cell membranes from P2Y12 transfected CHO-cells, the methodology is indicated below.
Functional inhibition of 2-Me-S-ADP induced P2Y12 signalling: 5 μg of membranes were diluted in 200 μl of 200 mM NaCl, 1 mM MgCl2, 50 mM HEPES (pH 7.4), 0.01% BSA, 30 μg/ml saponin and 10 μM GDP. To this was added an EC80 concentration of agonist (2-methyl-thio-adenosine diphosphate), the required concentration of test compound and 0.1 μCi ^35S-GTPγS. The reaction was allowed to proceed at 30° C. for 45 min. Samples were then transferred on to GF/B filters using a cell harvester and washed with wash buffer (50 mM Tris (pH 7.4), 5 mM MgCl2, 50mM NaCl). Filters were then covered with scintilant and counted for the amount of ^35S-GTPγS retained by the filter. Maximum activity was that determined in the presence of the agonist and minimum activity in the absence of the agonist following subtraction of the value determined for non-specific activity. The effect of compounds at various concentrations was plotted according to the equation
y=A+((B−A)/(1+((C/x)̂D)))
and IC50 estimated where • A is the bottom plateau of the curve i.e. the final minimum y value • B is the top of the plateau of the curve i.e. the final maximum y value • C is the x value at the middle of the curve. This represents the log EC50 value when A+B=100 • D is the slope factor. • x is the original known x values. • Y is the original known y values.
Functional inhibition of 2-Me-S-ADP induced P2Y12 signalling: 5 μg of membranes were diluted in 200 μl of 200 mM NaCl, 1 mM MgCl2, 50 mM HEPES (pH 7.4), 0.01% BSA, 30 μg/ml saponin and 10 μM GDP. To this was added an EC80 concentration of agonist (2-methyl-thio-adenosine diphosphate), the required concentration of test compound and 0.1 μCi ^35S-GTPγS. The reaction was allowed to proceed at 30° C. for 45 min. Samples were then transferred on to GF/B filters using a cell harvester and washed with wash buffer (50 mM Tris (pH 7.4), 5 mM MgCl2, 50 mM NaCl). […]

Row | IC50 [µM] | Structure (SMILES)
1 | 0.089 | CCOC(=O)c1cc(C#N)c(N2CC(C(=O)NS(=O)(=O)Cc3ccccc3)C2)nc1COCc1ccccc1 [Example 35, Ethyl 2-[(benzyloxy)methyl]-6-{3-[(benzylsulfonyl)carbamoyl]azetidin-1-yl}-5-cyanonicotinate]
2 | 0.015 | CCOC(=O)c1cc(C#N)c(N2CC(C(=O)NS(=O)(=O)Cc3ccccc3F)C2)nc1OC [Example 21]
3 | 0.134 | CCOC(=O)c1cc(C#N)c(N2CCC(C(=O)NS(=O)(=O)c3ccccc3)CC2)nc1OC [Example 7, Ethyl 5-cyano-2-methoxy-6-{4-[(phenylsulfonyl)carbamoyl]piperidin-1-yl}nicotinate]
